Measured values published in paper PMC4977651, “Molecular features of biguanides required for targeting of mitochondrial respiratory complex I and activation of AMP-kinase” (BMC Biology, 2016).
“And” between values parts separate entries of the source, which are not always exact repeats. Equal entries are not always repeated. Where two headings read alike, the source gives them in different places.

What was measured:
rat liver mitochondria = assay: ADP-stimulated rotenone-sensitive OCR in isolated rat liver mitochondria; assay type: biochemical; parameters: rotenone sensitive OCR after ADP stimulation, individual replicates / rotenone sensitive OCR after ADP stimulation, average: unit not given here; conditions: for rotenone sensitive OCR after ADP stimulation, % of control, average / rotenone sensitive OCR after ADP stimulation, average: average of replicates; for rotenone sensitive OCR after ADP stimulation, % of control, individual replicates / rotenone sensitive OCR after ADP stimulation, individual replicates: replicate 1-5
Experimental: (§1) Complex I and mitochondrial membranes were prepared from Bos taurus (bovine) heart. Intact mitochondria were isolated from rat liver and mouse heart and liver. Membranes were prepared from mouse heart mitochondria by 5 s bursts of sonication at 4 °C and collected by centrifugation (75,000 × g, 1 h).
Isolated mitochondria were monitored using a Seahorse XF96 extracellular flux analyzer at 32 °C. Mouse heart mitochondria, and mouse and rat liver mitochondria were plated into XF96 plates at 4 and 16–20 μg per well, respectively, in 220 mM mannitol, 70 mM sucrose, 10 mM KH2PO4, 5 mM MgCl2, 1 mM EGTA, 0.2 % fatty acid-free BSA, and 2 mM HEPES (pH 7.4 at 37 °C) with 10 mM glutamate and 10 mM malate and adhered by centrifugation (2000 × g, 20 min, 4 °C). The medium was supplemented with a further 5 mM glutamate and 5 mM malate and the mitochondria incubated for 15 min. Then two baseline readings were taken before the biguanides were added at IC50/5. Biguanides were allowed to accumulate for 15–20 min before respiration was […] by the addition of 4 mM ADP. Rotenone (2 μM) was added at the end of the experiment. Data from wells with failed port injections were excluded from the analyses. The RCR values (state III versus state IV respiration) were 3.4, 4.8, and 4.6 for mouse heart, rat liver, and mouse liver, respectively.

MDBK cells = assay: Rotenone-sensitive oxygen consumption rate in intact MDBK cells; assay type: cell-based, Bos taurus; parameters: key to rotenone sensitive OCR after 40 mins of biguanide exposure / rotenone sensitive OCR after 40 mins of biguanide exposure, average: % of OCR recorded immediately before biguanide addition; conditions: for rotenone sensitive OCR after 6 hours of biguanide exposure, % control, average / rotenone sensitive OCR after 6 hours of biguanide exposure, average / rotenone sensitive OCR after 40 mins of biguanide exposure, % control, average / rotenone sensitive OCR after 40 mins of biguanide exposure, average / rotenone sensitive OCR after 40 mins of biguanide exposure / rotenone sensitive OCR after 40 mins of biguanide exposure, % control: biguanide at IC50/10; for rotenone sensitive OCR after 6 hours of biguanide exposure, average: OCR normalized to OCR immediately prior to biguanide addition; for rotenone sensitive OCR after 40 mins of biguanide exposure, % control, average / rotenone sensitive OCR after 40 mins of biguanide exposure, average / rotenone sensitive OCR after 40 mins of biguanide exposure / rotenone sensitive OCR after 40 mins of biguanide exposure, % control: MDBK intact cells; for rotenone sensitive OCR after 40 mins of biguanide exposure, % control, average / rotenone sensitive OCR after 40 mins of biguanide exposure, average: average of replicates; for rotenone sensitive OCR after 40 mins of biguanide exposure / rotenone sensitive OCR after 40 mins of biguanide exposure, % control: individual replicates
Experimental: (§2) 143B (CRL-8303 from ATCC), HepG2 (85011430 from The Health Protection Agency), and MDBK (CCL-22 from ATCC) cells were grown on Dulbecco’s modified Eagle’s medium (DMEM) supplemented with 10 % fetal bovine serum (FBS, Thermo Fisher Scientific) at 37 °C in 5 % CO2. All cells were confirmed as negative for mycoplasma.
(§3) Oxygen consumption rates (OCRs) were measured using a Seahorse XF96 extracellular flux analyzer at 37 °C. For intact cell measurements, 1.4 × 10^4 143B, HepG2, or MDBK cells were plated (per well) in DMEM containing 10 % FBS into Seahorse Bioscience Inc. XF96 plates and incubated for ~12 h at 37 °C in 5 % CO2. Then, the medium was exchanged for assay buffer containing DMEM, 4.5 g L^−1 glucose, 1 mM pyruvate, 32 mM NaCl, 2 mM GlutaMAX, 15 mg L^−1 phenol red, and 20 mM HEPES (pH 7.4 at 37 °C) and the cells placed in a CO2-free incubator at 37 °C for 30 min. Basal oxygen consumption rates were established before the addition of biguanides at one-tenth of their IC50 (IC50/10), and followed for ~ 6 h before the addition of rotenone (2 μM).
(§4) Rotenone-sensitive OCRs were calculated by subtracting the rotenone-insensitive rates (determined at the end of the experiment). OCRs were normalized by dividing by the OCR recorded immediately prior to the addition of biguanide. For rate of uptake calculations, the OCRs at time points after biguanide addition were divided by the OCRs at the same time points in control experiments. Data from wells with failed port injections were excluded from the analyses. The respiratory control ratio (RCR) values (state III versus state IV respiration) were ~11 and ~6 for permeabilized MDBK and 143B cells, respectively.

HepG2 cells = assay: Rotenone-sensitive oxygen consumption rate in intact HepG2 cells; assay type: cell-based, human; conditions: for rotenone sensitive OCR after 6 hours of biguanide exposure, % control, average / rotenone sensitive OCR after 6 hours of biguanide exposure, average: HEPG2 cells, biguanide at IC50/10; for rotenone sensitive OCR after 6 hours of biguanide exposure, average: OCR normalized to OCR immediately prior to biguanide addition; for inhibition of rotenone-sensitive respiration (in words): intact HepG2 cells, biguanide at IC50/10, monitored for 6 h
Experimental: as §2, §3, §4

[1] = target: mouse heart mitochondrial membranes (complex I) (Mus musculus, UniProt P03888+P03899+Q91WD5+Q9DC70); assay: NADH:O2 oxidoreduction by mouse heart mitochondrial membranes; assay type: biochemical; conditions: for remaining activity at 130 µM: inhibitor 0.13 mM; for remaining activity at 250 µM: inhibitor 0.25 mM; for remaining activity at 500 µM: inhibitor 0.50 mM; for remaining activity at 1000 µM: inhibitor 1.00 mM; for remaining activity at 5000 µM: inhibitor 5.00 mM; for remaining activity at 10000 µM: inhibitor 10.00 mM; for LogIC50 (best fit value): log of IC50 in mM
Sequence of mouse heart mitochondrial membranes (complex I) (P03899 whole entry): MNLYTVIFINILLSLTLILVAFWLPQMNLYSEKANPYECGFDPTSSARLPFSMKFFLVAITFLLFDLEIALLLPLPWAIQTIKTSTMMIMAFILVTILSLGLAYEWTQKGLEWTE
Sequence of mouse heart mitochondrial membranes (complex I) (P03888 whole entry): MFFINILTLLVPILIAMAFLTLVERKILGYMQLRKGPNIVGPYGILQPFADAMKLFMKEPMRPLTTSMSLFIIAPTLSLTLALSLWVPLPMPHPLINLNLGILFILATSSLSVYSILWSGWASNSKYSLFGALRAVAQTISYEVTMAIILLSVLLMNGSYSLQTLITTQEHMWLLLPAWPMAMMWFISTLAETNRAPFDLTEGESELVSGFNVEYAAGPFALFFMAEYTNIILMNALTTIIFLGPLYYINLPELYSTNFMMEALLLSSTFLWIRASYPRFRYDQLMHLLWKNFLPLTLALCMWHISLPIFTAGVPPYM
Sequence of mouse heart mitochondrial membranes (complex I) (Q9DC70 36-224): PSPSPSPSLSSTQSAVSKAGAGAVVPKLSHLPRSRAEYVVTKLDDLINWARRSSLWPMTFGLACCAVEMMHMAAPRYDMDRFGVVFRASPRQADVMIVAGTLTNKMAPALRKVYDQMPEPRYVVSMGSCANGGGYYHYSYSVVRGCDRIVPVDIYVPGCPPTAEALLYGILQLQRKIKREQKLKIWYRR
Sequence of mouse heart mitochondrial membranes (complex I) (Q91WD5 34-463): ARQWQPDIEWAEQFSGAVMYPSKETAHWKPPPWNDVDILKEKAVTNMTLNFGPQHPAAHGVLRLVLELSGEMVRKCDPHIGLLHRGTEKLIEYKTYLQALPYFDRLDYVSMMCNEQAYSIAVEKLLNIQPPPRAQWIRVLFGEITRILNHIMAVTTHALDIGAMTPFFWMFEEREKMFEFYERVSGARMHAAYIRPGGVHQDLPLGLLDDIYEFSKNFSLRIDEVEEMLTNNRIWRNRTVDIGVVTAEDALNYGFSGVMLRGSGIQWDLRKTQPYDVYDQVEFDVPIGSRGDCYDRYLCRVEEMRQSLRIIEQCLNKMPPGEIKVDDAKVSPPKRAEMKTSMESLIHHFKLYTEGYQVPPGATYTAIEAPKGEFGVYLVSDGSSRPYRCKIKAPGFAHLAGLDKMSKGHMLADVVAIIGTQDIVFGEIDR
Experimental: as §1
Assays were performed at 32 °C in a SpectraMax 96-well plate reader. NADH:decylubiquinone oxidoreduction by complex I at 0.5 μg mL^−1 was measured in 20 mM Tris-HCl (pH 7.2), 0.15 % soy bean asolectin (Avanti Polar Lipids), and 0.15 % 3-((3-cholamidopropyl)dimethylammonium)-1-propanesulfonate (CHAPS, Merck Chemicals Ltd), with 200 μM decylubiquinone and 200 μM NADH, and monitored using ε340–380(NADH) = 4.81 mM^−1 cm^−1 [23]. Catalysis was initiated by addition of NADH and maximal rates determined by linear regression. NADH:O2 oxidoreduction by membranes was measured similarly but using 5 μg mL^−1 membranes in 10 mM Tris-HCl (pH 7.4) and 250 mM sucrose using 200 μM NADH and supplemented with 0.15 mM horse heart cytochrome c (Sigma-Aldrich Ltd.). Succinate:O2 oxidoreduction was measured using 40 μg mL^−1 membranes in 5 mM succinate in 10 mM Tris-HCl (pH 7.4) as described previously. Control experiments included NaCl (to match the ionic strength) or DMSO, as appropriate.
Experimental values are reported as mean averages ± standard deviation (SD) of technical replicates for large sample sizes and mean averages ± standard error of the mean (SEM) of technical replicates for small sample sizes. Data were analyzed by the unpaired two-tailed Student’s t test. IC50 values were determined using the standard dose-effect relationship (activity (%) = 100 × IC50 / (IC50 + [inhibitor]^m) with the Hill Slope (m) set to unity for purified complex I) and are reported with 95 % confidence intervals.

[2] = Prism variable slope fit, Bottom 0, Top 100, read-out: IC50 (best fit value)
[3] = read-out: average % (rate, % of no-inhibitor control)

NC(N)=NC(N)=NCCc1ccc(Cl)cc1 [compound 1, 2-[2-(4-chlorophenyl)ethyl]-1-(diaminomethylidene)guanidine]
rotenone sensitive OCR after ADP stimulation, % of control, average (rat liver mitochondria): 55.19 % of control
rotenone sensitive OCR after ADP stimulation, average (rat liver mitochondria): 15.13
rotenone sensitive OCR after ADP stimulation, % of control, individual replicates (rat liver mitochondria): 67.97 % of control and 49.70 % of control and 53.49 % of control and 49.59 % of control
rotenone sensitive OCR after ADP stimulation, individual replicates (rat liver mitochondria): 18.64 and 13.63 and 14.67 and 13.60
rotenone sensitive OCR after 6 hours of biguanide exposure, % control, average (MDBK cells; MDBK cells): 64.04 % control
rotenone sensitive OCR after 6 hours of biguanide exposure, average (MDBK cells; MDBK cells): 64.24
maximal rate of accumulation (estimated matrix concentration) (MDBK cells; MDBK cells, biguanide at IC50/10 in the extracellular medium (phenformin 34 μM; compound 1 37 μM), estimated from OCR inhibition): 1 µM/min
rotenone sensitive OCR after 40 mins of biguanide exposure, % control, average (MDBK cells): 96.88 % control
rotenone sensitive OCR after 40 mins of biguanide exposure, average (MDBK cells): 98.58
rotenone sensitive OCR after 40 mins of biguanide exposure (MDBK cells): 98.09 and 97.70 and 99.35 (3×) and 96.88 and 99.34
rotenone sensitive OCR after 40 mins of biguanide exposure, % control (MDBK cells): 96.40 % control and 96.02 % control and 97.64 % control (3×) and 95.21 % control and 97.63 % control
rotenone sensitive OCR after 6 hours of biguanide exposure, % control, average (HepG2 cells): 4.45 % control
rotenone sensitive OCR after 6 hours of biguanide exposure, average (HepG2 cells): 4.59
inhibition of rotenone-sensitive respiration (in words) (HepG2 cells): inhibit respiration
HillSlope (best fit value) ([1]; Prism variable slope fit): -0.8311
IC50 [1, 2]: 465 µM
remaining activity at 130 µM [1, 3]: 75.2%
remaining activity at 250 µM [1, 3]: 62.1%
remaining activity at 500 µM [1, 3]: 47.6%
remaining activity at 1000 µM [1, 3]: 36.7%
remaining activity at 2500 µM ([1]; inhibitor 2.50 mM, read-out: average % (rate, % of no-inhibitor control)): 19.7%
remaining activity at 5000 µM [1, 3]: 9.86%
remaining activity at 10000 µM [1, 3]: 8.63%
LogIC50 (best fit value) ([1]; Prism variable slope fit): -0.3323

N=C(N)NC(N)=Nc1ccccc1 [compound 2, phenyl biguanide]
rotenone sensitive OCR after ADP stimulation, % of control, average (rat liver mitochondria): 93.19 % of control
rotenone sensitive OCR after ADP stimulation, average (rat liver mitochondria): 25.55
rotenone sensitive OCR after ADP stimulation, % of control, individual replicates (rat liver mitochondria): 95.39 % of control and 93.60 % of control and 90.74 % of control and 93.05 % of control
rotenone sensitive OCR after ADP stimulation, individual replicates (rat liver mitochondria): 26.15 and 25.66 and 24.88 and 25.51
rotenone sensitive OCR after 6 hours of biguanide exposure, % control, average (MDBK cells; MDBK cells): 99.86 % control
rotenone sensitive OCR after 6 hours of biguanide exposure, average (MDBK cells; MDBK cells): 100.16
rotenone sensitive OCR after 40 mins of biguanide exposure, % control, average (MDBK cells): 98.99 % control
rotenone sensitive OCR after 40 mins of biguanide exposure, average (MDBK cells): 100.73
rotenone sensitive OCR after 40 mins of biguanide exposure (MDBK cells): 97.96 and 102.05 and 98.68 and 102.17 and 103.50 and 100.00
rotenone sensitive OCR after 40 mins of biguanide exposure, % control (MDBK cells): 96.27 % control and 100.30 % control and 96.98 % control and 100.41 % control and 101.71 % control and 98.28 % control
rotenone sensitive OCR after 6 hours of biguanide exposure, % control, average (HepG2 cells): 91.28 % control
rotenone sensitive OCR after 6 hours of biguanide exposure, average (HepG2 cells): 94.14
inhibition of rotenone-sensitive respiration (in words) (HepG2 cells): do not
HillSlope (best fit value) ([1]; Prism variable slope fit): -1.093
LogIC50 (best fit value) ([1]; Prism variable slope fit): -0.05416
IC50 ([1]; read-out: IC50 (best fit value), Prism variable slope fit, Bottom 0, Top 100): 883 µM

NC(N)=NC(N)=NCc1ccccc1 [compound 3, 2-benzyl-1-(diaminomethylidene)guanidine]
rotenone sensitive OCR after ADP stimulation, % of control, average (rat liver mitochondria): 24.02 % of control
rotenone sensitive OCR after ADP stimulation, average (rat liver mitochondria): 6.59
rotenone sensitive OCR after ADP stimulation, % of control, individual replicates (rat liver mitochondria): 20.74 % of control and 19.21 % of control and 31.06 % of control and 25.09 % of control
rotenone sensitive OCR after ADP stimulation, individual replicates (rat liver mitochondria): 5.69 and 5.27 and 8.51 and 6.88
rotenone sensitive OCR after 6 hours of biguanide exposure, % control, average (MDBK cells; MDBK cells): 18.14 % control
rotenone sensitive OCR after 6 hours of biguanide exposure, average (MDBK cells; MDBK cells): 18.19
rotenone sensitive OCR after 40 mins of biguanide exposure, % control, average (MDBK cells): 88.51 % control
rotenone sensitive OCR after 40 mins of biguanide exposure, average (MDBK cells): 90.06
rotenone sensitive OCR after 40 mins of biguanide exposure (MDBK cells): 86.89 and 91.07 and 89.16 and 91.81 and 91.02 and 90.42
rotenone sensitive OCR after 40 mins of biguanide exposure, % control (MDBK cells): 85.39 % control and 89.50 % control and 87.62 % control and 90.23 % control and 89.45 % control and 88.86 % control
rotenone sensitive OCR after 6 hours of biguanide exposure, % control, average (HepG2 cells): 1.26 % control
rotenone sensitive OCR after 6 hours of biguanide exposure, average (HepG2 cells): 1.29
inhibition of rotenone-sensitive respiration (in words) (HepG2 cells): inhibit respiration
HillSlope (best fit value) ([1]; Prism variable slope fit): -1.132
IC50 [1, 2]: 3180 µM
remaining activity at 130 µM [1, 3]: 99.2%
remaining activity at 250 µM [1, 3]: 93.8%
remaining activity at 500 µM [1, 3]: 86.3%
remaining activity at 1000 µM [1, 3]: 85%
remaining activity at 5000 µM [1, 3]: 35.4%
remaining activity at 10000 µM [1, 3]: 25.3%
LogIC50 (best fit value) ([1]; Prism variable slope fit): 0.5023
